Measured values from article PMC6599048, “Polyhistidine facilitates direct membrane translocation of cell-penetrating peptides into cells” (Scientific Reports, 2019).
Primed or numbered codes have the meaning given here. Ends that are not written are not given here. FITC′ = fluorescein isothiocyanate label

What was measured:
human A549 cells = experiment: Cellular internalization of FITC-CPPs, fluorescent microscopy; assay type: cell-based; conditions: 80 μM, serum-free RPMI 1640, 37 °C, 1 h, Hoechst 33342 counterstain
Protocol: (§1) A549 cells were washed with phosphate buffered saline (PBS) and changed to serum-free RPMI 1640 medium for protein transduction experiments. The presence of 10% serum in the medium as the solvent caused a decrease in the uptake of CPPs or their complexes/conjugates. For cellular internalization, cells were seeded at a density of about 1 × 10^5 per 35-mm petri dish and then treated with serum-free medium (as a control), 80 μM of FITC isomer I (Sigma-Aldrich, St. Louis, MO, USA), FITC-nonCPP, FITC-L6, FITC-HL6, or FITC-HR9 at 37 °C for either 1 h or various time durations. The fluorescent tracker Hoechst 33342 was used to stain the nuclei of cells in blue, according to the manufacturer’s instructions (Thermo Fisher).
Bright-field and fluorescent images were captured using an AE31 inverted Epi-fluorescence microscope (Motic, Hong Kong, China) equipped with an IS1000 eyepiece (Tucsen, Fujian, China)[17]. Excitation filter modules of green and blue fluorescent protein (GFP, BFP) channels were set at 480/30 and 350/50 nm, respectively. Emission filter modules of GFP and BFP channels were set at 535/40 and 460/50 nm, respectively.

A549 cells [1] = experiment: Time course of cellular internalization of FITC-CPPs, flow cytometry; assay type: cell-based, human; conditions: 80 μM, 37 °C
Protocol: as §1
Cells were seeded at a density of about 2 × 10^5 per well in a 24-well plate. Following the protein transduction, cells were washed with PBS and harvested by adding 250 μl/well of 2.9 mM ethylenediaminetetraacetic acid (EDTA, pH 6.14)[22]. […] Digital measurements were analyzed using Cell Lab Quanta SC MPL software version 1.0 (Beckman Coulter).

HeLa cells = experiment: MTT cytotoxicity assay, HeLa; conditions: 6 μM HL6, 0.3 μM QDs or complexes at ratio 20, 37 °C 30 min, then 24 h in complete medium, twelve independent experiments
Protocol: One hundred % DMSO and serum-free medium were used to treat cells for 30 min as positive and negative controls, respectively. HeLa cells were pretreated with 4 °C for 30 min or heparinases I, II, and III for 6 h. Cells were then treated with HL6/QD complexes (prepared at a ratio of 20 at 37 °C for 1 h) in the absence or presence of various endocytic inhibitors at 37 °C for 30 min. After treatment, cells were washed with PBS and then incubated in complete culture medium at 37 °C for 24 h. Eighty μl of serum-free medium and 20 μl of 3-(4,5-dimethylthiazol-2-yl)-2,5-diphenyltetrazolium bromide (MTT, Sigma-Aldrich; 5 mg/ml in PBS) solution were added to each well. After incubation at 37 °C for 30 min, […] formazan crystals converted only by metabolically living cells were dissolved in 300 μl of DMSO. The 24-well plates were then read using a SpectraMax M2 microplate reader with SoftMax Pro 6.3 microplate analysis software (Molecular Devices, Sunnyvale, CA, USA) at 540 nm wavelength.

A549 cells [2] = experiment: MTT cytotoxicity assay, A549; conditions: 6 μM HL6, 0.3 μM QDs or complexes at ratio 20, 37 °C 30 min, then 24 h in complete medium, twelve independent experiments

Substance: fluorescein isothiocyanate [FITC, reference compound]
- green fluorescence in cells (cellular internalization) (human A549 cells): did not display green fluorescence

Substance: FITC-HL6: N-terminal fluorescein isothiocyanate (FITC) labeled HL6 ({FITC′}-CHHHHHRRWQWRHHHHHC; cysteine pairing not given here)
- green fluorescence in cells (cellular internalization) (human A549 cells): green fluorescence
- time by which green fluorescence was present (A549 cells [1]; serum-free medium): ≤ 5 min
- uptake relative to the FITC-L6 group (A549 cells [1]; 60 min, serum-free medium, seven independent experiments in triplicates): 46.7 times

Substance: CHHHHHRRRRRRRRRHHHHHC [FITC-HR9, reference compound]
- time by which green fluorescence was present (A549 cells [1]; serum-free medium): ≤ 5 min
- fraction of cells showing uptake, comparison between FITC-CPPs (A549 cells [1]; all time points): higher with FITC-HR9-treated cells than FITC-HL6 and FITC-L6 at all time points

Substance: CHHHHHRRWQWRHHHHHC [HL6]
- cytotoxicity (cell viability, MTT) (HeLa cells): No cytotoxicity was detected
- cytotoxicity (cell viability, MTT) (A549 cells [2]): No cytotoxicity was detected
